This note sets out measurements from publication PMC9143577, “Cationic Geminoid Peptide Amphiphiles Inhibit DENV2 Protease, Furin, and Viral Replication” (Molecules, 2022).

One may read the IC50 as the concentration at which inhibition is half-maximal. The low end stands for greater potency in that assay, the high end for weaker potency in that assay.

The target in the experiment is DENV2 protease (Dengue virus type 2, UniProt P14340). As to the kind of experiment: biochemical. As to the method: IC50 values were determined in CDD Vault using the Levenberg–Marquardt algorithm for fitting a Hill equation to dose-response data.
DENV2 protease, sequence (P14340 1476-1653): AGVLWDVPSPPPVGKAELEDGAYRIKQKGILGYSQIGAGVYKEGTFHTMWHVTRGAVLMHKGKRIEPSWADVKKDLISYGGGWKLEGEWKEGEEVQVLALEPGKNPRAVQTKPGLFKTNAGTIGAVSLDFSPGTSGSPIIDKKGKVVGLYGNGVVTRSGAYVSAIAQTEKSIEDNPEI
DENV2 protease, sequence (P14340 1398-1437): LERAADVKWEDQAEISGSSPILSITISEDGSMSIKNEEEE
Enzyme expression and purification
DENV2 Protease Preparation. The enzyme was expressed and purified as previously described (ref. S1). Briefly, the vector with CF40 fused to NS3pro was used for high- level inducible expression of recombinant enzyme, tagged on the N-t erminus with hexahistidine. E. coli strain SG13009 cells were transformed with the expression plasmid and grown in kanamycin at 37 °C until the absorb ance at 600 nm r each ed a v alue of 0.6. Cells were induced for expression by the addition of isopropyl-β-D-thiogalactopyranose to a final concentration of 1 mM and incubated for additional 3 h at 30 °C. The cells were harvested by centrifugation, resuspended in 1 mL of a lysis buffer, subjected to sonication, and centrifuged again. The supernatant was collected and passed through a 2- mL column of nitrilotriacetic acid-agarose (Qiagen) loaded with Ni2+. The column was extensively washed with buffer containing […], and the protein was then eluted from then column in buffer containing 100 mM imidazole.
Elution samples were analyzed by 15% SDS-PAGE and the substrate Z-RR- MCA was used to distinguish the activity of DENV2 protease from that of contaminating bacterial […]
proteases. […]

Take `CCCCCCCCCCCCCCCCNC(=O)[C@H](CCCCN)NC(=O)[C@H](CCCCN)NC(=O)CCCCCCCCCCCCCCC` [Compound 1]: half-maximal inhibition (IC50) was put at 4.25 ± 0.27 µM.
